Marks after values point to notes of the source that are not given here.
Tested on: broiler chickens
Test: Effect of iron source and level on hemoglobin, hematocrit, performance and iron bioavailability (slope-ratio) of iron-depleted broiler chicks
Assay type: in vivo
Settings: for Efficiency / Gain / Hematocrit / Intake: from day 7
Experimental: Experiments were conducted to determine the effect of trace mineral level and source on hemoglobin, hematocrit and performance of broiler chickens. Bioavailability of iron was determined by the common-intercept multiple linear regression (slope-ratio) method (S. Aoyagi and D. H. Baker, Nutritional evaluation of a copper-methionine complex for chicks, Poult. Sci. 1993; 72:2309-15). For the first 7 days, chicks were fed a semi-purified diet based on dextrose, corn starch and casein (see Table 1), but with a low level of corn in order to encourage food intake. The calculated iron concentration was 25 ppm and the adaptation period was done in order to deplete iron stores received via the egg.
Beginning on day 7, chicks were provided experimental diets containing the three iron sources added to the basal diet as tabulated below. The three iron sources are commercial grade iron sulphate (FeSO4) (Comparative Example A), siderite (Comparative Example B) and agglomerated particles of starch and crystallites of iron(II) carbonate (Example 1; in accordance with the disclosure) (see Table 2). The agglomerated particles were prepared by grinding siderite to a d90 value below 5 subsequently mixing the ground iron(II) carbonate, starch and water, and spray drying the dispersion. The resulting agglomerated particles have a mean particle size of […]; the content of iron(II) carbonate is 36.94 wt %, based on the total weight of the agglomerated particles.
Birds were raised in Petersime batteries and all metal (feeders, waterers, raised wire floors) in contact with the birds was stainless steel. Water was deionized.
Statistical Analysis: Hemoglobin, hematocrit and performance data were regressed against dietary iron level for each source to obtain linear dose response relationships and bioavailability was calculated from the ratio of the slopes to that of FeSO4. Data (excluding the basal treatment) was also analyzed as a […]×4 level factorial arrangement of treatments. Slope ratios were calculated using the 0, 15, and 25 ppm added levels.

[1] = 15 ppm added iron in basal diet
[2] = 25 ppm added iron in basal diet

Compound: O=S(=O)([O-])[O-].[Fe+2] [Comparative Example A, iron sulphate (FeSO4)]
- Efficiency [1]: 0.59 gain/feed
- Gain [1]: 523.9 g/chick
- Hematocrit [1]: 38.3%
- Intake [1]: 888.2 g/chick
- Efficiency [2]: 0.62 gain/feed
- Gain [2]: 548.5 g/chick
- Hematocrit [2]: 37.2%
- Intake [2]: 884.0 g/chick
- Efficiency, main effect mean for iron source (across all levels): 0.61 gain/feed
- Gain, main effect mean for iron source (across all levels): 531.8 g/chick
- Hematocrit, main effect mean for iron source (across all levels): 37.3%
- Intake, main effect mean for iron source (across all levels): 867.5 ^a g/chick

From patent US20200146314A1, “TRACE MINERAL COMPOSITION” (Nutreco IP Assets B.V., priority 2017, published 2020)
